target: T1, human orexin-2 (hOX2) receptors (Homo sapiens, UniProt O43614); test: Intracellular Ca2+ mobilization assay (FLIPR), antagonism of orexin-A; type: cell-based; conditions: CHO(dHFr−) cells stably expressing hOX2; orexin-A at EC80 as agonist; Kb=IC50/(1+[A]/EC50); read-out: Kb (μM) OX2R (human)
T1 construct: expressed in transfected cells
T1 sequence (O43614 1-444): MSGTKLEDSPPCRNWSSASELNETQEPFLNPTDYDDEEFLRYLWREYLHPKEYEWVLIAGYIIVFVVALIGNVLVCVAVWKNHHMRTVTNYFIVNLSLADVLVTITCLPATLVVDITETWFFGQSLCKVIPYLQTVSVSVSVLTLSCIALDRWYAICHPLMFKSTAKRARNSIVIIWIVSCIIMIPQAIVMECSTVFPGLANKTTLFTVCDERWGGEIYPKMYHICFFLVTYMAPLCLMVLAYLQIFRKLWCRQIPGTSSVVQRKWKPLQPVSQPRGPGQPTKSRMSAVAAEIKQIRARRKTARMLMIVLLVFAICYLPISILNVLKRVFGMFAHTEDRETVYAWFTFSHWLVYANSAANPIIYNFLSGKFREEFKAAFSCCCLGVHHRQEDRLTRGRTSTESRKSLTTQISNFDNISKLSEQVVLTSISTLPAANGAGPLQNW
Experimental: R^7 and R^8 in scheme 5 are hydrogen, and the other substituents are as described above The compounds were investigated in accordance with the test given hereinafter. Intracellular Ca^2+ Mobilization Assay
The Chinese Hamster Ovary (dHFr−) mutant cell line stably expressing human orexin-1 (hOX1) or human orexin-2 (hOX2) receptors were maintained in Dulbecco's Modified Eagle Medium (1×) with GlutaMax™ 1, 4500 mg/L D-Glucose and Sodium Pyruvate (Catalog No. 31966-021, Invitrogen, Carlsbad, Calif.), 5% dialyzed fetal calf serum (Catalog No. 26400-044), 100 μg/ml penicillin and 100 μg/ml streptomycin. The cells were seeded at 5×10^4 cells/well in the poly-D-lysine treated, 96-well, black/clear-bottomed plates (Catalog No. BD356640, BD Biosciences, Palo Alto, Calif.). 24 h later, the cells were loaded for 1 h at 37° C. with 4 μM Flou-4 acetoxymethyl ester (Catalog No. F-14202, Molecular Probes, Eugene, Oreg.) in FLIPR buffer (1×HBSS, 20 mM HEPES, 2.5 mM Probenecid). Hanks' Balanced Salt Solution (HBSS) (10×) (catalog No. 14065-049) and HEPES (1M) (catalog No. 15630-056) were purchased from Invitrogen, Carlsbad, Calif. Probenecid (250 mM) (catalog No. P8761) was from Sigma, Buchs, Switzerland. The cells were washed five times with FLIPR buffer to remove excess dye and intracellular calcium mobilization, [Ca^2+]i were measured using a Fluorometric Imaging Plate Reader (FLIPR-96, Molecular Devices, Menlo Park, Calif.) as described previously (Malherbe et al., Mol. Pharmacol., 64, 823-832, 2003). Orexin A (catalog No. 1455, Toris Cookson Ltd, Bristol, UK) was used as agonist. Orexin A ([…] stock solution in DMSO) was diluted in FLIPR buffer+0.1% BSA. The EC50 and EC80 values of orexin-A were measured daily from standard agonist concentration-response curves in CHO(dHFr−)-OX1R and —OX2R cell lines. All compounds were dissolved in 100% DMSO. Inhibition curves were determined by addition of 11 concentrations (0.0001-10 μM) of inhibitory compounds and using EC80 value of orexin-A as agonist (a concentration which gave 80% of max agonist response, determined daily). The antagonists were applied 25 min (incubation at 37° C.) before the application of the agonist. Responses were measured as peak increase in fluorescence minus basal, normalized to the maximal stimulatory effect induced by EC80 value of orexin-A or orexin-B. Inhibition curves were fitted according to the Hill equation: y=100/(1+(x/IC50)^nH), where nH=slope factor using Excel-fit 4 software (Microsoft). Kb values were calculated according to the following equation Kb=IC50/(1+[A]/EC50) where A is the concentration of agonist added which is very close to agonist EC80 value, and IC50 and EC50 values were derived from the antagonist inhibition and orexin-A or B agonist curves, respectively.

Row | Structure (SMILES) | Kb [µM]
1 | CNC(=O)C(NC(CCc1ccc(C)nc1)c1ccc(F)c(C)c1)c1ccccc1 (mixture of isomers) [Example 258, 2-[1-(4-Fluoro-3-methyl-phenyl)-3-(6-methyl-pyridin-3-yl)-propylamino]-N-methyl-2-phenyl-acetamide] | 0.0172
2 | CNC(=O)C(NC(CCc1ccc(C(F)(F)F)nc1)c1ccc(OC(F)F)c(OC(F)F)c1)c1ccccc1 (mixture of isomers) [Example 263, 2-[1-(3,4-Bis-difluoromethoxy-phenyl)-3-(6-trifluoromethyl-pyridin-3-yl)-propylamino]-N-methyl-2-phenyl-acetamide] | 0.0102
3 | CNC(=O)[C@H](N[C@@H](CCc1ccc(Cl)cc1)c1ccc2c(c1)CCO2)c1ccccc1 (racemic) [Example 38, (S,R)-2-[(R,S)-3-(4-Chloro-phenyl)-1-(2,3-dihydro-benzofuran-5-yl)-propylamino]-N-methyl-2-phenyl-acetamide] | 0.0096
4 | CNC(=O)[C@H](N[C@@H](CCc1ccc(Cl)cc1)c1ccc(OC)c(OC)c1Cl)c1ccccc1 (racemic) [Example 40, (S,R)-2-[(R,S)-1-(2-Chloro-3,4-dimethoxy-phenyl)-3-(4-chloro-phenyl)-propylamino]-N-methyl-2-phenyl-acetamide] | 0.0068
5 | CNC(=O)[C@H](N[C@H](CCc1ccc(Cl)cc1)c1ccc(OC)c(OC)c1Cl)c1ccccc1 (racemic) [Example 41, (S,R)-2-[(S,R)-1-(2-Chloro-3,4-dimethoxy-phenyl)-3-(4-chloro-phenyl)-propylamino]-N-methyl-2-phenyl-acetamide] | 0.0167
6 | CNC(=O)[C@H](N[C@@H](CCc1ccc(C(F)(F)F)nc1)c1ccc2c(c1)CCCC2)c1ccc(F)cc1 (racemic) [Example 57, (S,R)-2-(4-Fluoro-phenyl)-N-methyl-2-[(R,S)-1-(5,6,7,8-tetrahydro-naphthalen-2-yl)-3-(6-trifluoromethyl-pyridin-3-yl)-propylamino]-acetamide] | 0.0093
7 | CNC(=O)[C@H](N[C@@H](CCc1ccc(C(F)(F)F)cc1)c1ccc2c(c1)OCCN2C)c1ccccc1 (racemic) [Example 78, (S,R)—N-Methyl-2-[(R,S)-1-(4-methyl-3,4-dihydro-2H-benzo[1,4]oxazin-7-yl)-3-(4-trifluoromethyl-phenyl)-propylamino]-2-phenyl-acetamide] | 0.0127
8 | CNC(=O)[C@H](N[C@@H](CCc1ccc(OC)cc1)c1cccnc1OC)c1ccccc1 (racemic) [Example 135, (S,R)-2-[(R,S)-3-(4-Methoxy-phenyl)-1-(2-methoxy-pyridin-3-yl)-propylamino]-N-methyl-2-phenyl-acetamide] | 0.0155
9 | CNC(=O)[C@H](N[C@@H](CCc1ccc(OC)cc1)c1ccc(OC)c(OC)c1)c1ccccc1 (racemic) [Example 146, (S,R)-2-[(R,S)-1-(3,4-Dimethoxy-phenyl)-3-(4-methoxy-phenyl)-propylamino]-N-methyl-2-phenyl-acetamide] | 0.0132
10 | CNC(=O)[C@H](N[C@@H](CCc1ccc(C(F)(F)F)cc1)c1cccnc1OC)c1ccccc1 (racemic) [Example 179, (S,R)-2-[(R,S)-1-(2-Methoxy-pyridin-3-yl)-3-(4-trifluoromethyl-phenyl)-propylamino]-N-methyl-2-phenyl-acetamide] | 0.0081
11 | CNC(=O)[C@H](N[C@@H](CCc1ccc(C(F)(F)F)cc1)c1cccc(C)n1)c1ccccc1 (racemic) [Example 207, (S,R)—N-Methyl-2-[(R,S)-1-(6-methyl-pyridin-2-yl)-3-(4-trifluoromethyl-phenyl)-propylamino]-2-phenyl-acetamide] | 0.0079
12 | CNC(=O)[C@H](N[C@@H](CCc1ccc(C(F)(F)F)cc1)c1cc(OC)ccn1)c1ccccc1 (racemic) [Example 210, (S,R)-2-[(R,S)-1-(4-Methoxy-pyridin-2-yl)-3-(4-trifluoromethyl-phenyl)-propylamino]-N-methyl-2-phenyl-acetamide] | 0.0096
13 | CNC(=O)[C@H](N[C@H](CCc1ccc(C(F)(F)F)nc1)c1ccc(Cl)c(OC)c1)c1ccccc1 (racemic) [Example 215, (S,R)-2-[(S,R)-1-(4-Chloro-3-methoxy-phenyl)-3-(6-trifluoromethyl-pyridin-3-yl)-propylamino]-N-methyl-2-phenyl-acetamide] | 0.008
14 | CNC(=O)[C@H](N[C@@H](CCc1ccc(C(F)(F)F)nc1)c1ccc(Cl)c(OC)c1)c1ccccc1 (racemic) [Example 216, (S,R)-2-[(R,S)-1-(4-Chloro-3-methoxy-phenyl)-3-(6-trifluoromethyl-pyridin-3-yl)-propylamino]-N-methyl-2-phenyl-acetamide] | 0.0073

Continued, values first:

Row | Kb [µM] | Structure (SMILES)
15 | 0.009 | CNC(=O)[C@@H](N[C@@H](CCc1ccc(C(F)(F)F)cc1)c1ccc(OC)c(OC)c1)c1ccc(Cl)cc1 (racemic) [Example 33, (S,R)-2-(4-Chloro-phenyl)-2-[(S,R)-1-(3,4-dimethoxy-phenyl)-3-(4-trifluoromethyl-phenyl)-propylamino]-N-methyl-acetamide]
16 | 0.0049 | CNC(=O)[C@H](N[C@@H](CCc1ccc(C(F)(F)F)cc1)c1ccc(OC)c(OC)c1)c1ccc(F)cc1 (racemic) [Example 34, (S,R)-2-[(R,S)-1-(3,4-Dimethoxy-phenyl)-3-(4-trifluoromethyl-phenyl)-propylamino]-2-(4-fluoro-phenyl)-N-methyl-acetamide]
17 | 0.0168 | CNC(=O)[C@@H](N[C@@H](CCc1ccc(C(F)(F)F)cc1)c1ccc(OC)c(OC)c1)c1ccccc1 (racemic) [Example 141, (S,R)-2-[(S,R)-1-(3,4-Dimethoxy-phenyl)-3-(4-trifluoromethyl-phenyl)-propylamino]-N-methyl-2-phenyl-acetamide]
18 | 0.003 | CNC(=O)[C@H](N[C@@H](CCc1ccc(C(F)(F)F)cc1)c1ccc(OC)c(OC)c1)c1ccccc1 (racemic) [Example 142, (S,R)-2-[(R,S)-1-(3,4-Dimethoxy-phenyl)-3-(4-trifluoromethyl-phenyl)-propylamino]-N-methyl-2-phenyl-acetamide]
19 | 0.005 | CNC(=O)[C@H](N[C@@H](CCc1ccc(C(F)(F)F)nc1)c1ccc(OC)c(OC)c1)c1ccccc1 (racemic) [Example 171, (S,R)-2-[(R,S)-1-(3,4-Dimethoxy-phenyl)-3-(6-trifluoromethyl-pyridin-3-yl)-propylamino]-N-methyl-2-phenyl-acetamide]
20 | 0.0086 | CNC(=O)[C@H](N[C@H](CCc1ccc(C(F)(F)F)cc1)c1ccc(Cl)c(OC)c1)c1ccccc1 (racemic) [Example 176, (S,R)-2-[(S,R)-1-(4-Chloro-3-methoxy-phenyl)-3-(4-trifluoromethyl-phenyl)-propylamino]-N-methyl-2-phenyl-acetamide]
21 | 0.0099 | CNC(=O)[C@H](N[C@@H](CCc1ccc(C(F)(F)F)cc1)c1ccc(Cl)c(OC)c1)c1ccccc1 (racemic) [Example 177, (S,R)-2-[(R,S)-1-(4-Chloro-3-methoxy-phenyl)-3-(4-trifluoromethyl-phenyl)-propylamino]-N-methyl-2-phenyl-acetamide]
22 | 0.0024 | CNC(=O)[C@H](N[C@@H](CCc1ccc(C)cc1)c1ccc(OC)c(OC)c1)c1ccccc1 (racemic) [Example 209, (S,R)-2-[(R,S)-1-(3,4-Dimethoxy-phenyl)-3-p-tolyl-propylamino]-N-methyl-2-phenyl-acetamide]
